Assay results: article PMC8379681 (Cell reports, 2021)

Target: SPAK (Homo sapiens, UniProt Q9UEW8)
Format: biochemical

Nc1ncnc2occ(-c3ccc(NC(=O)Nc4cc(C(F)(F)F)ccc4F)cc3)c12 [YU252, YU239252]
IC50: 8.23 µM
